Experimental data as given in patent US20240101600A1, “FIBROBLAST GROWTH FACTOR RECEPTOR (FGFR)-TARGETING ANTAGONISTIC SHORT PEPTIDE” (WENZHOU MEDICAL UNIVERSITY, priority 2019, published 2024).
Where no end group is shown, it is not given here.

Legend:
FGFR1 [1] = molecular target: T1, FGFR1 (Mus musculus, UniProt P16092); experiment: Western blot of bFGF-induced FGFR1 activation in MEF-WT fibroblasts; type: cell-based; parameters: endogenous in cells; host or cells: MEF-WT; Balb/c 3T3; details: P48 pretreatment 10 min, bFGF 15 min
Experimental: (§1) Human embryonic kidney cells HEK-293, fibroblasts MEF-WT and Balb/c 3T3 were inoculated into 6-well plates, respectively. After growing adherently overnight, the cells were pretreated with P48 for 10 min or with AZD4547/PD173074/SSR for 2 h, and incubated with bFGF for 15 min. […] The experimental procedure was as follows: MEF-WT and MEFKO (FGFR1-FGFR2-FRS2a) cells (1×10^6 cells/ml) were inoculated in a 35 mm petri dish. After being adhered to the wall of petri dish overnight, the cells were washed with PBS; FITC-conjugated P48 (1, 10, 100 and 1000 nM) was added, and the cells were incubated in an incubator for 30 min. The cells were immobilized with 1% paraformaldehyde in the dark and washed with PBS. An expression level of the FITC was measured at a fluorescence channel 1 (FL-1) (530 nm), with an excitation wavelength of 488 nm. Data analysis was conducted using CellQuest software (Becton Dickinson).

B16-F10 cells = experiment: MTT viability, B16-F10 cells; type: cell-based; details: 48 h with bFGF
Experimental: (§2) In vitro anti-tumor activity of a short peptide compound P48 Hela229 (1500 cells/100 μl), B16-F10 (1000 cells/100 μl), NCI-H460 (4000 cells/100 μl) and SGC7901 (4000 cells/100 μl) cells were inoculated in 96-well plates. After incubated overnight adherently, the original medium was replaced with a Dulbecco's modified eagle medium (DMEM) containing 0.1% fetal bovine serum (FBS) or a Roswell Park Memorial Institute 1640 (RPMI-1640) medium containing 0.1% FBS, and culture was continued for 24 h. A mixture of P48 and bFGF, or bFGF alone were added into corresponding wells, and incubated for 48 h; an MTT solution (5 mg/mL) prepared by PBS was added to the cells in each well at 37° C., and treated for 4 h. The MTT was removed by aspiration, 150 μL of DMSO was added to each well, shaking was conducted for 10 min, and an optical density (OD) value was quantified with a microplate reader (SpectraMax M2/M2e, Molecular Devices, Sunnyvale, USA) at a wavelength of 490 nm. The percentage of drug growth inhibition rate was calculated by comparing with the bFGF group. […] The experimental procedure was as follows: 10% FBS-containing medium (500 μl) was added to a lower surface of a transwell insertion chamber, the cells together with the drug were inoculated into an upper chamber, and cultured with a serum-free medium (200 μl). […]

FGFR1 [2] = molecular target: T1, FGFR1; experiment: Western blot of bFGF-induced FGFR1 activation in Balb/c 3T3 fibroblasts; type: cell-based; parameters: endogenous in cells; host or cells: MEF-WT; Balb/c 3T3; details: P48 pretreatment 10 min, bFGF 15 min
Experimental: as §1

FGFR1 [3] = molecular target: T2, FGFR1 (Homo sapiens, UniProt P11362); experiment: Flow cytometry binding of P48 to FGFR1 in SGC-7901 cells; type: cell-based; parameters: endogenous in cells; host or cells: Hela229; NCI-H460; SGC-7901; MGC-803
Experimental: as §1
(§3) Cervical cancer cells Hela229, melanoma B16-F10, lung cancer cells NCI-H460, gastric cancer cells SGC-7901 and MGC-803 were inoculated into 6-well plates, respectively. After growing adherently overnight, the cells were pretreated with P48 for 10 min or with AZD4547/SSR for 2 h, and incubated with bFGF for 15 min or with KGF for 20 min.

FGFR1 [4] = molecular target: T1, FGFR1; experiment: Western blot of FGFR1 signaling pathway in melanoma B16-F10; type: cell-based; parameters: endogenous in cells; details: bFGF stimulation
Experimental: as §3

FGFR1 [5] = experiment: Flow cytometry binding of FITC-conjugated P48 to MEF-WT and FGFR1-FGFR2-FRS2a knock-out MEF cells; type: cell-based; details: FITC-conjugated P48 1, 10, 100, 1000 nM, 30 min
Experimental: as §1

EGFR = molecular target: T3, EGFR (Homo sapiens, UniProt P00533, DEL746-750); experiment: Western blot of EGFR and ERK1/2 in PC-9 cells under EGF stimulation; type: cell-based; details: EGF 10 min
T3 construct: endogenous in cells; host or cells: PC-9

SGC-7901 cells = experiment: MTT viability, SGC-7901 cells; type: cell-based; details: 48 h with bFGF
Experimental: as §2

FGFR1 [6] = molecular target: T2, FGFR1; experiment: Western blot of FGFR1 signaling pathway in cervical cancer cells Hela229; type: cell-based; parameters: endogenous in cells; host or cells: Hela229; NCI-H460; SGC-7901; MGC-803; details: bFGF stimulation
Experimental: as §3

FGFR2B = FGFR2B (Homo sapiens, UniProt P21802); experiment: SPR detection of interaction with FGFR2B; type: binding
Sequence of FGFR2B (P21802 22-822 isoform P21802-3 limits assumed): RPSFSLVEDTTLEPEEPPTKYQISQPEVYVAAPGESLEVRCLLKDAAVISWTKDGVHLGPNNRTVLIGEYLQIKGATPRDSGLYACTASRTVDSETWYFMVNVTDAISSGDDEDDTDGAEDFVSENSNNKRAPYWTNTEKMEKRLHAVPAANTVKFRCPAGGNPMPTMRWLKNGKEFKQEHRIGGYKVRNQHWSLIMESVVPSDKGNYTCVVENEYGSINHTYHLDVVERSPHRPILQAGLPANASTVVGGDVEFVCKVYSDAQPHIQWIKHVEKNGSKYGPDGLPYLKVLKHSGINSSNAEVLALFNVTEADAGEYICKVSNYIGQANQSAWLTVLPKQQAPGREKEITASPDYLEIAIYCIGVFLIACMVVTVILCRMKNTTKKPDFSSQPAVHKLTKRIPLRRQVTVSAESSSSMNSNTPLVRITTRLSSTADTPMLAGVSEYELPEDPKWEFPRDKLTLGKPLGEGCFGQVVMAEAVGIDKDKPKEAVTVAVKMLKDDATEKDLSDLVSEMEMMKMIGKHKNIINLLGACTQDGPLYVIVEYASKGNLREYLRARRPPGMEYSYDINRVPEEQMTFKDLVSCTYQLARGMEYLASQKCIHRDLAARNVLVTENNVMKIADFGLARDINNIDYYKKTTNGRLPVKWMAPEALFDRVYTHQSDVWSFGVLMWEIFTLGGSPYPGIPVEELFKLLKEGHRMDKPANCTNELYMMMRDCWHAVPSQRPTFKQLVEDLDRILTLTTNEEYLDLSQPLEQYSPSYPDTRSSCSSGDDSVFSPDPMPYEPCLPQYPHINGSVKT

T1 sequence (P16092 22-822): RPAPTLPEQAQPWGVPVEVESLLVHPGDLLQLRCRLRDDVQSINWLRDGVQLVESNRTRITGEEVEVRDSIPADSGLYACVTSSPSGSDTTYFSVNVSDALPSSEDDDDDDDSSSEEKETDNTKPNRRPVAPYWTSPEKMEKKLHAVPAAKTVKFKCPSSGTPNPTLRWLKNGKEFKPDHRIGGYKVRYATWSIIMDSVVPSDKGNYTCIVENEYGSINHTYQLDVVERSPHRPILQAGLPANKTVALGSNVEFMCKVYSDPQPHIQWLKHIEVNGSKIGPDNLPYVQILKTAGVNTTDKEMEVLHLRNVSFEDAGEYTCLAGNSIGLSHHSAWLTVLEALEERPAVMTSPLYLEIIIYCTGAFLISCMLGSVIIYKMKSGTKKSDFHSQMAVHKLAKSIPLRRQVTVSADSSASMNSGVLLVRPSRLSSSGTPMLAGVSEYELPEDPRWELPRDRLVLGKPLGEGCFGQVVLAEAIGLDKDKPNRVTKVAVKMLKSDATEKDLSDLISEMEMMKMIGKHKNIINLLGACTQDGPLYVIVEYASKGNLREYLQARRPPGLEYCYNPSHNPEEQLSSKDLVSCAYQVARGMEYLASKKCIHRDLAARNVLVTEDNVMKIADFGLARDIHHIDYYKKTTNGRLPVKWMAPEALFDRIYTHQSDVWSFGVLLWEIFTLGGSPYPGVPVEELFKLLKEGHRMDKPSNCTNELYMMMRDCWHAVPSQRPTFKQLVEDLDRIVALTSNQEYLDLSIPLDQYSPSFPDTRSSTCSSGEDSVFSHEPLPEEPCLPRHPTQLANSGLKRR
T2 sequence (P11362 22-822): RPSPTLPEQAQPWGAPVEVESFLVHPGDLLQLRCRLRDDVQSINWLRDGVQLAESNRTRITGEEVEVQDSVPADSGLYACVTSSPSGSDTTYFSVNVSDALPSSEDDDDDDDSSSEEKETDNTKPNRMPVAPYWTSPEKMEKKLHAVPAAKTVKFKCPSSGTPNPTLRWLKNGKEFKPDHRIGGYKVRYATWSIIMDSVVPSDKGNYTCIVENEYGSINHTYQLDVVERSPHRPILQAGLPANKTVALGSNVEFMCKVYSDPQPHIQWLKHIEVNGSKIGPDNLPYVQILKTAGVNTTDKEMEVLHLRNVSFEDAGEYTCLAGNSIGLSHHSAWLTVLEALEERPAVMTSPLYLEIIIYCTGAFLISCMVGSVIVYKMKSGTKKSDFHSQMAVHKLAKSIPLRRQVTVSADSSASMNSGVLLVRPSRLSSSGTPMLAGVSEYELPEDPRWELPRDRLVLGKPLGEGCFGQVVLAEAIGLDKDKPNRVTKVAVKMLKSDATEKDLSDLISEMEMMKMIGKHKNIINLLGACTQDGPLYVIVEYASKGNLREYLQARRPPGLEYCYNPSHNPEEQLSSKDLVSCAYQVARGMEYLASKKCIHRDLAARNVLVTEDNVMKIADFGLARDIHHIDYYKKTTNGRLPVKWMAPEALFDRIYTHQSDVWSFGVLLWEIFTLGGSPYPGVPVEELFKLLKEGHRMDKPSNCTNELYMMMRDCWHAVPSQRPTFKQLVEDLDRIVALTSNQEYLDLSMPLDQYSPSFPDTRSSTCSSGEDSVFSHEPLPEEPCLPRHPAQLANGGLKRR

binding to the FGFR1 site of the cell membrane surface (FGFR1 [3]): desirable binding effect
effect on EGF stimulation (phosphorylated EGFR and ERK1/2) (EGFR): has no effect
binding to FGFR2B (FGFR2B): can be bound
Substance: SPPRYPGGGS-NH2 [P48, Ser-Pro-Pro-Arg-Tyr-Pro-Gly-Gly-Gly-Ser-NH2]
inhibition of FGFR1 activation induced by bFGF (FGFR1 [1]): can inhibit activation of FGFR1 induced by bFGF in a concentration-dependent manner
inhibition of cancer cell viability (B16-F10 cells): can significantly inhibit the viability of cancer cells
inhibition of FGFR1 activation induced by bFGF (FGFR1 [2]): can inhibit activation of FGFR1 induced by bFGF in a concentration-dependent manner
inhibition of FGFR1 signaling pathway (FGFR1 [4]): can inhibit the FGFR1 signaling pathway of cervical cancer, melanoma, lung cancer and gastric cancer in a concentration-dependent manner
binding to wild-type versus FGFR1-FGFR2-FRS2a knock-out MEF cells (FGFR1 [5]): only has a binding effect on the wild-type MEF cells
inhibition of cancer cell viability (SGC-7901 cells): can significantly inhibit the viability of cancer cells
inhibition of FGFR1 signaling pathway (FGFR1 [6]): can inhibit the FGFR1 signaling pathway of cervical cancer, melanoma, lung cancer and gastric cancer in a concentration-dependent manner
